# Molecular target: KRas G12D/Q61H double mutant (Homo sapiens (Human), UniProt P01116, G12D/Q61H)
# Test: Ras GTP binding domain inhibition assay (labeled GTP)
# Details: 20 μM
# In short: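 Ni-plate capture of His-KRas (3-10 μg/ml, o/n, 4° C); Tris pH 7.5/MgCl2/DTT buffer, 1% DMSO. Cpd 20 μM or titration, 3 h RT. Cy3/Cy5-GTP 45 min RT, wash, fluorescence of bound GTP.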
# KRas G12D/Q61H double mutant, sequence (P01116-2 other isoform, or with tags, fused parts or gaps G12D/Q61H): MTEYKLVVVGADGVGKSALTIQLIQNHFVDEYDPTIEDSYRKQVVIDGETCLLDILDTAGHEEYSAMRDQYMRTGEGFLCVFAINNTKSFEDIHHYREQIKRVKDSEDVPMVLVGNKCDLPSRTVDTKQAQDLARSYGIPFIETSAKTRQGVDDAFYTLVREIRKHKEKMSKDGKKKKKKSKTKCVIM
row,KRas G12D Q61H % Inh.,Structure (SMILES)
1,C (C = 51-75% inhibition),O=C(COc1ccc(F)cc1F)Nc1nnc(-c2ccccn2)[nH]1 [drawing 2459]

# Same assay, conditions: 20 μM; read-out: KRas G12D Q61H % Inh.
row,Structure (SMILES),inhibition at 20 µM
1,COc1ccc(CCC(=O)Nc2nnc(-c3ccccn3)[nH]2)cc1F [drawing 2454],51 to 75%
2,O=C(Cc1c[nH]c2ccccc12)Nc1nnc(-c2ccccn2)[nH]1 [drawing 2456],51 to 75%
3,O=C(COc1ccc(F)cc1F)Nc1nnc(-c2ccccn2)[nH]1 [drawing 2458],51 to 75%
4,COc1cccc(CC(=O)Nc2nnc(-c3ccccn3)[nH]2)c1 [drawing 2460],51 to 75%
5,Cc1ccc(C(=O)Nc2nnc(-c3ccccn3)[nH]2)cc1S(C)(=O)=O [drawing 2461],51 to 75%
6,O=C(CCn1ccc2ccccc21)Nc1nnc(-c2ccccn2)[nH]1 [drawing 2462],51 to 75%
7,Cc1oc(-c2ccccc2)nc1C(=O)Nc1nnc(-c2ccccn2)[nH]1 [drawing 2463],51 to 75%
8,Cc1c(C(=O)Nc2nnc(-c3ccccn3)[nH]2)oc2ccccc12 [drawing 2465],51 to 75%
9,O=C(Nc1nnc(-c2ccccn2)[nH]1)c1ccn(-c2cccc(F)c2)n1 [drawing 2468],51 to 75%
10,COc1ccc2c(ccn2CC(=O)Nc2nnc(-c3ccccn3)[nH]2)c1 [drawing 2470],51 to 75%
11,O=C(CCc1c[nH]c2ccccc12)Nc1nnc(-c2ccccn2)[nH]1 [drawing 2471],51 to 75%
12,C[C@H](NS(=O)(=O)c1ccccc1F)C(=O)Nc1nnc(-c2ccccn2)[nH]1 [drawing 2478],51 to 75%
13,O=C(Nc1nnc(-c2ccccn2)[nH]1)c1ccc(CN2C(=O)CCC2=O)cc1 [drawing 2481],51 to 75%
14,CC(C)c1noc(CCCC(=O)Nc2nnc(-c3ccccn3)[nH]2)n1 [drawing 2483],51 to 75%
15,CC(C)c1noc(CCC(=O)Nc2nnc(-c3ccccn3)[nH]2)n1 [drawing 2486],51 to 75%
16,N#Cc1ccccc1OCC(=O)Nc1nnc(-c2ccccn2)[nH]1 [drawing 2488],51 to 75%
17,O=C(Nc1nnc(-c2ccccn2)[nH]1)c1ccc(Oc2ccccc2)nc1 [drawing 2491],51 to 75%
18,CC(C)(C)c1noc(CCC(=O)Nc2nnc(-c3ccccn3)[nH]2)n1 [drawing 2493],51 to 75%
19,O=C(Cc1ccccc1)NCCC(=O)Nc1nnc(-c2ccccn2)[nH]1 [drawing 2495],51 to 75%
20,O=C(Nc1nnc(-c2ccccn2)[nH]1)c1ncoc1-c1cccs1 [drawing 2501],51 to 75%
21,O=C(Cn1c(=O)oc2ccccc21)Nc1nnc(-c2ccccn2)[nH]1 [drawing 2502],51 to 75%
22,O=C(CCNC(=O)c1ccco1)Nc1nnc(-c2ccccn2)[nH]1 [drawing 2503],51 to 75%

row,Structure (SMILES),inhibition at 20 µM
1,CCn1nnc2cc(C(=O)Nc3nnc(-c4ccccn4)[nH]3)ccc21 [drawing 2507],51 to 75%
2,CC(Oc1ccccc1C#N)C(=O)Nc1nnc(-c2ccccn2)[nH]1 (stereo not shown) [drawing 2510],51 to 75%
3,CC(Oc1cccc(C#N)c1)C(=O)Nc1nnc(-c2ccccn2)[nH]1 (stereo not shown) [drawing 2511],51 to 75%
4,CC(Oc1ccc(C(=O)Nc2nnc(-c3ccccn3)[nH]2)cn1)c1ccccc1 (stereo not shown) [drawing 2512],51 to 75%
5,CC(OCc1ccccc1)C(=O)Nc1nnc(-c2ccccn2)[nH]1 (stereo not shown) [drawing 2516],51 to 75%
6,CC(COCc1ccccc1)C(=O)Nc1nnc(-c2ccccn2)[nH]1 (stereo not shown) [drawing 2517],51 to 75%
7,N#Cc1cccc(OCC(=O)Nc2nnc(-c3ccccn3)[nH]2)c1 [drawing 2523],51 to 75%
8,CC(Oc1ccc(C#N)cc1)C(=O)Nc1nnc(-c2ccccn2)[nH]1 (stereo not shown) [drawing 2525],51 to 75%
9,O=C(Nc1nnc(-c2ccccn2)[nH]1)c1ccc(NC(=O)c2ccccn2)cc1 [drawing 2528],51 to 75%
10,COC(=O)c1cncc(C(=O)Nc2nnc(-c3ccccn3)[nH]2)c1 [drawing 2529],51 to 75%
11,CCc1ccccc1OCC(=O)Nc1nnc(-c2ccccn2)[nH]1 [drawing 2530],51 to 75%
12,Cc1nc(-c2ccccn2)sc1C(=O)Nc1nnc(-c2ccccn2)[nH]1 [drawing 2532],51 to 75%
13,Cc1nc2nc(C(F)(F)F)nn2c(C)c1CC(=O)Nc1nnc(-c2ccccn2)[nH]1 [drawing 2533],51 to 75%
14,COc1cccc(COCC(=O)Nc2nnc(-c3ccccn3)[nH]2)c1 [drawing 2534],51 to 75%
15,O=C(Cn1c(=O)[nH]c2ccccc21)Nc1nnc(-c2ccccn2)[nH]1 [drawing 2536],51 to 75%
16,CN(CC(=O)Nc1nnc(-c2ccccn2)[nH]1)Cc1ccccc1 [drawing 2537],51 to 75%
17,NC(=O)c1ccc(OCC(=O)Nc2nnc(-c3ccccn3)[nH]2)cc1 [drawing 2538],51 to 75%
18,COc1ccccc1-c1cc(C(=O)Nc2nnc(-c3ccccn3)[nH]2)no1 [drawing 2539],51 to 75%
19,CC(C)C(=O)Nc1nc(CC(=O)Nc2nnc(-c3ccccn3)[nH]2)cs1 [drawing 2541],51 to 75%
20,O=C(Nc1nnc(-c2ccccn2)[nH]1)C1=NOC(c2ccccc2)C1 (stereo not shown) [drawing 2544],51 to 75%
21,O=C(Nc1nnc(-c2ccccn2)[nH]1)c1csc(-c2ccco2)n1 [drawing 2546],51 to 75%

# Next, values leading:
row,inhibition at 20 µM,Structure (SMILES)
1,51 to 75%,O=C(Nc1nnc(-c2ccccn2)[nH]1)c1ccc2c(c1)CCO2 [drawing 2455]
2,51 to 75%,Cn1cc(C2CC2C(=O)Nc2nnc(-c3ccccn3)[nH]2)cn1 (stereo not shown) [drawing 2457]
3,51 to 75%,CC(Oc1ccccc1Cl)C(=O)Nc1nnc(-c2ccccn2)[nH]1 (stereo not shown) [drawing 2467]
4,51 to 75%,Cc1ccc(CC(=O)Nc2nnc(-c3ccccn3)[nH]2)cc1 [drawing 2473]
5,76 to 100%,Cn1cc(-c2nc(C(=O)Nc3nnc(-c4ccccn4)[nH]3)cs2)cn1 [drawing 2474]
6,25 to 50%,Cn1ccc(C(=O)Nc2nnc(-c3ccccn3)[nH]2)cc1=O [drawing 2476]
7,51 to 75%,Cc1c(C(=O)Nc2nnc(-c3ccccn3)[nH]2)oc2c1C(=O)CCC2 [drawing 2477]
8,51 to 75%,CC(OCC(F)(F)F)C(=O)Nc1nnc(-c2ccccn2)[nH]1 (stereo not shown) [drawing 2479]
9,51 to 75%,CC(C)c1nc(CC(=O)Nc2nnc(-c3ccccn3)[nH]2)cs1 [drawing 2480]
10,51 to 75%,O=C(CC1C=CCC1)Nc1nnc(-c2ccccn2)[nH]1 (stereo not shown) [drawing 2484]
11,51 to 75%,COc1ccc(CC(=O)Nc2nnc(-c3ccccn3)[nH]2)cc1 [drawing 2485]
12,51 to 75%,O=C(Cc1cccs1)Nc1nnc(-c2ccccn2)[nH]1 [drawing 2487]
13,51 to 75%,O=C(Nc1nnc(-c2ccccn2)[nH]1)C1CCCC1 [drawing 2489]
14,51 to 75%,O=C(Nc1nnc(-c2ccccn2)[nH]1)C1COc2ccccc2C1 (stereo not shown) [drawing 2490]
15,51 to 75%,Cc1noc(C)c1CC(=O)Nc1nnc(-c2ccccn2)[nH]1 [drawing 2492]
16,51 to 75%,O=C(Nc1nnc(-c2ccccn2)[nH]1)C1CC(=O)N(CCc2ccccc2)C1 (stereo not shown) [drawing 2494]
17,51 to 75%,CN(CC(=O)Nc1nnc(-c2ccccn2)[nH]1)S(C)(=O)=O [drawing 2496]
18,51 to 75%,O=C(Cc1cccc(F)c1)Nc1nnc(-c2ccccn2)[nH]1 [drawing 2497]
19,51 to 75%,O=C(Nc1nnc(-c2ccccn2)[nH]1)c1cccc(NC(=O)C2CCCO2)c1 (stereo not shown) [drawing 2498]
20,51 to 75%,O=C(CC1CCCC1)NCC(=O)Nc1nnc(-c2ccccn2)[nH]1 [drawing 2500]

row,inhibition at 20 µM,Structure (SMILES)
1,51 to 75%,CC(C)COC(C)C(=O)Nc1nnc(-c2ccccn2)[nH]1 (stereo not shown) [drawing 2505]
2,51 to 75%,Cc1ccc(CC(=O)Nc2nnc(-c3ccccn3)[nH]2)cn1 [drawing 2506]
3,51 to 75%,O=C(Nc1nnc(-c2ccccn2)[nH]1)c1nc(N2CCOCC2)ncc1Cl [drawing 2508]
4,51 to 75%,O=C(Nc1nnc(-c2ccccn2)[nH]1)C1Cc2ccccc2O1 (stereo not shown) [drawing 2509]
5,51 to 75%,O=C(Nc1nnc(-c2ccccn2)[nH]1)C1CCCN(c2ncccn2)C1 (stereo not shown) [drawing 2514]
6,51 to 75%,O=C(Cc1ccc(F)cc1)Nc1nnc(-c2ccccn2)[nH]1 [drawing 2515]
7,51 to 75%,O=C(Nc1nnc(-c2ccccn2)[nH]1)C1CCCC(C(F)(F)F)C1 (stereo not shown) [drawing 2518]
8,51 to 75%,O=C(COCc1ccccc1Cl)Nc1nnc(-c2ccccn2)[nH]1 [drawing 2519]
9,51 to 75%,O=C(Nc1nnc(-c2ccccn2)[nH]1)C1CC1c1ccc(F)cc1 (stereo not shown) [drawing 2520]
10,51 to 75%,Cc1ccc(CC(=O)Nc2nnc(-c3ccccn3)[nH]2)s1 [drawing 2521]
11,51 to 75%,O=C(Nc1nnc(-c2ccccn2)[nH]1)c1ccc(OCC2CC2)cc1 [drawing 2522]
12,51 to 75%,Cc1cccc(C(=O)Nc2nnc(-c3ccccn3)[nH]2)n1 [drawing 2524]
13,51 to 75%,O=C(COc1ccc2c(c1)CCC2)Nc1nnc(-c2ccccn2)[nH]1 [drawing 2526]
14,51 to 75%,O=C(Nc1nnc(-c2ccccn2)[nH]1)C1CCCN(c2cnccn2)C1 (stereo not shown) [drawing 2527]
15,51 to 75%,CC1CCc2sc(C(=O)Nc3nnc(-c4ccccn4)[nH]3)cc2C1 (stereo not shown) [drawing 2531]
16,51 to 75%,COc1ccccc1C1CC1C(=O)Nc1nnc(-c2ccccn2)[nH]1 (stereo not shown) [drawing 2535]
17,51 to 75%,O=C(Nc1nnc(-c2ccccn2)[nH]1)c1cccc(N2CCCS2(=O)=O)c1 [drawing 2540]
18,51 to 75%,CC(C)(C)c1nc(C(=O)Nc2nnc(-c3ccccn3)[nH]2)cs1 [drawing 2543]
19,51 to 75%,O=C(COc1ccccc1)Nc1nnc(-c2ccccn2)[nH]1 [drawing 2545]

# Same assay, conditions: read-out: KRas G12D Q61H IC50
row,IC50,Structure (SMILES)
1,< 5 µM,O=C(CCc1c[nH]c2ccccc12)Nc1nnc(-c2ccccn2)[nH]1 [drawing 2471]
2,< 5 µM,CC(Oc1cccc(C#N)c1)C(=O)Nc1nnc(-c2ccccn2)[nH]1 (stereo not shown) [drawing 2511]
